Read-outs that look alike come from different tables or passages of the source.
Columns and labels:
[1] = system: Mycosphaerella graminicola; Anamorph: Septoria tritici; assay: Fungicidal activity: Leaf Blotch of Wheat (SEPTTR); format: in vivo; conditions: Zymoseptoria tritici, wheat leaf blotch; for pest or weed control at 121.5 g/ha: Low Volume (121.5 g/H); for pest or weed control at 100 µg/mL: High Volume (100 ppm)
Description: Evaluation of Fungicidal Activity: Leaf Blotch of Wheat (Mycosphaerella graminicola; Anamorph: Septoria tritici; Bayer Code […]) Technical grades of materials were dissolved in acetone, which were then mixed with nine volumes of water containing 110 ppm Triton X-100. The fungicide solutions were applied onto wheat seedlings using an automated booth sprayer to run-off. All sprayed plants were allowed to air dry prior to further handling. All fungicides were evaluated using the aforementioned method for their activity vs. all target diseases, unless stated otherwise. Wheat leaf blotch and brown rust activity were also evaluated using track spray applications, in which case the fungicides were formulated as EC formulations, containing 0.1% Trycol 5941 in the spray solutions. Wheat plants (variety Yuma) were grown from seed in a greenhouse in 50% mineral soil/50% soil-less Metro mix until the first leaf was fully emerged, with 7-10 seedlings per pot. These plants were inoculated with an aqueous spore suspension of Septoria tritici either prior to or after fungicide treatments. After inoculation the plants were kept in 100% relative humidity (one day in a dark dew chamber followed by two to three days in a lighted dew chamber at 20° C.) to permit spores to germinate and infect the leaf. The plants were then transferred to a greenhouse set at 20° C. for disease to develop. When disease symptoms were fully expressed on the 1st leaves of untreated plants, infection levels were assessed on a scale of 0 to 100 percent disease severity. Percent disease control was calculated using the ratio of disease severity on treated plants relative to untreated plants.

Puccinia triticina = assay: Fungicidal activity: Wheat Brown Rust (PUCCRT); format: in vivo; conditions: for pest or weed control at 121.5 g/ha: Low Volume (121.5 g/H); for pest or weed control at 100 µg/mL: High Volume (100 ppm)
Description: Technical grades of materials were dissolved in acetone, which were then mixed with nine volumes of water containing 110 ppm Triton X-100. The fungicide solutions were applied onto wheat seedlings using an automated booth sprayer to run-off. All sprayed plants were allowed to air dry prior to further handling. All fungicides were evaluated using the aforementioned method for their activity vs. all target diseases, unless stated otherwise. Wheat leaf blotch and brown rust activity were also evaluated using track spray applications, in which case the fungicides were formulated as EC formulations, containing 0.1% Trycol 5941 in the spray solutions. Wheat plants (variety Yuma) were grown from seed in a greenhouse in 50% mineral soil/50% soil-less Metro mix until the first leaf was fully emerged, with 7-10 seedlings per pot. These plants were inoculated with an aqueous spore suspension of Septoria tritici either prior to or after fungicide treatments. After inoculation the plants were kept in 100% relative humidity (one day in a dark dew chamber followed by two to three days in a lighted dew chamber at 20° C.) to permit spores to germinate and infect the leaf. The plants were then transferred to a greenhouse set at 20° C. for disease to develop. When disease symptoms were fully expressed on the 1st leaves of untreated plants, infection levels were assessed on a scale of 0 to 100 percent disease severity. Percent disease control was calculated using the ratio of disease severity on treated plants relative to untreated plants. Evaluation of Fungicidal Activity: Wheat Brown Rust (Puccinia triticina; Synonym: Puccinia recondite f. Sp. Tritici; Bayer Code PUCCRT) Wheat plants (variety Yuma) were grown from seed in a greenhouse in 50% mineral soil/50% soil-less Metro mix until the first leaf was fully emerged, with 7-10 seedlings per pot. These plants were inoculated with an aqueous spore suspension of Puccinia triticina either prior to or after fungicide treatments. After inoculation the plants were kept in a dark dew room at 22° C. with 100% relative humidity overnight to permit spores to germinate and infect the leaf. The plants were then transferred to a greenhouse set at 24° C. for disease to develop. Fungicide formulation, application and disease assessment followed the procedures as described in the Example A.

[2] = 24 h, 1 Day Protectant, read-out: SEPTTR 1 DP disease control
[3] = 72 h, 3 Day Curative, read-out: SEPTTR 3 DC disease control
[4] = 24 h, 1 Day Protectant, read-out: PUCCRT 1 DP disease control
[5] = 72 h, 3 Day Curative, read-out: PUCCRT 3 DC disease control

Structure (SMILES) | pest or weed control at 121.5 g/ha [1, 2] [%] | pest or weed control at 121.5 g/ha [1, 3] [%] | pest or weed control at 121.5 g/ha (Puccinia triticina; [4]) [%] | pest or weed control at 121.5 g/ha (Puccinia triticina; [5]) [%] | pest or weed control at 100 µg/mL [1, 2] [%] | pest or weed control at 100 µg/mL [1, 3] [%] | pest or weed control at 100 µg/mL (Puccinia triticina; [4]) [%] | pest or weed control at 100 µg/mL (Puccinia triticina; [5]) [%]
COc1ccnc(C(=O)N[C@H]2COC[C@H](Cc3ccccc3)[C@@H](C3CCCC3)[C@H](C)OC2=O)c1OCOC(C)=O [compound 38] | > 70 | > 70 | > 70 | > 70 |  |  |  | 
COc1ccnc(C(=O)N[C@H]2COC[C@H](Cc3ccc(C(F)(F)F)cc3)[C@@H](Cc3ccc(F)cc3)[C@H](C)OC2=O)c1OCOC(C)=O [compound 78] | < 70 | < 70 | < 70 | < 70 |  |  |  | 
CCCC[C@@H]1[C@@H](Cc2ccccc2)COC[C@H](NC(=O)c2nccc(OC)c2OC(C)=O)C(=O)O[C@H]1C [compound 15] | > 70 | > 70 | > 70 | > 70 | > 70 | > 70 | > 70 | > 70
COc1ccnc(C(=O)N[C@H]2COC[C@H](CCCc3ccccc3)[C@@H](CC(C)C)[C@H](C)OC2=O)c1OC(C)=O [compound 62] | > 70 | > 70 | > 70 | > 70 |  |  |  | 
COc1ccnc(C(=O)N[C@H]2COC[C@H](Cc3ccccc3)[C@@H](Cc3ccc(F)cc3)[C@H](C)OC2=O)c1O [compound 143] |  |  |  |  | > 70 | < 70 | > 70 | < 70
COc1ccnc(C(=O)N[C@H]2COC[C@H](CCC(C)C)[C@@H](Cc3ccccc3)[C@H](C)OC2=O)c1OC(C)=O [compound 46] | > 70 | > 70 | > 70 | > 70 |  |  |  | 
COc1ccnc(C(=O)N[C@H]2COC[C@@H]3CCCC[C@H]3[C@H](C)OC2=O)c1OCOC(C)=O [compound 6] |  |  |  |  | < 70 | < 70 | > 70 | 
CCCC[C@@H]1[C@@H](Cc2ccc(C(F)(F)F)cc2)COC[C@H](NC(=O)c2nccc(OC)c2O)C(=O)O[C@H]1C [compound 123] |  |  |  |  | < 70 | < 70 | < 70 | < 70
COc1ccnc(C(=O)N[C@H]2COC[C@H](Cc3ccccc3)[C@@H](CC(C)C)[C@H](C)OC2=O)c1OCOC(=O)C(C)C [compound 20] | > 70 | > 70 | > 70 | > 70 |  |  |  | 
CCOCC(=O)OCOc1c(OC)ccnc1C(=O)N[C@H]1COC[C@H](Cc2ccccc2)[C@@H](c2ccccc2)[C@H](C)OC1=O [compound 51] | > 70 | < 70 | > 70 | < 70 |  |  |  | 
COc1ccnc(C(=O)N[C@H]2COC[C@H](Cc3ccccc3)[C@@H](c3ccccc3)[C@H](C)OC2=O)c1OCOC(C)=O [compound 53] | > 70 | > 70 | > 70 | > 70 |  |  |  | 
CCC[C@H]1COC[C@H](NC(=O)c2nccc(OC)c2O)C(=O)O[C@@H](C)[C@@H]1c1ccccc1 [compound 152] |  |  |  |  | > 70 | > 70 | > 70 | > 70
COc1ccnc(C(=O)N[C@H]2COC[C@@H]3CCCC[C@H]3[C@@H](C)OC2=O)c1O [compound 114] |  |  |  |  | > 70 | < 70 | > 70 | > 70
COc1ccnc(C(=O)N[C@H]2COC[C@H](Cc3ccccc3)[C@@H](COCC(C)C)[C@H](C)OC2=O)c1OCOC(C)=O [compound 12] | > 70 | > 70 | > 70 | < 70 | > 70 | > 70 | > 70 | > 70
CCC[C@H]1COC[C@H](NC(=O)c2nccc(OC)c2OCOC(=O)COCC)C(=O)O[C@@H](C)[C@@H]1Cc1ccccc1 [compound 25] | > 70 | > 70 | > 70 | > 70 |  |  |  | 
COc1ccnc(C(=O)N[C@H]2COC[C@H](CC3CC3)[C@@H](Cc3ccc(F)cc3)[C@H](C)OC2=O)c1OCOC(C)=O [compound 104] | > 70 | > 70 | > 70 | > 70 |  |  |  | 
CCC[C@H]1COC[C@H](NC(=O)c2nccc(OC)c2OC(C)=O)C(=O)O[C@@H](C)[C@@H]1c1ccccc1 [compound 98] | > 70 | > 70 | > 70 | > 70 |  |  |  | 
CCC[C@H]1COC[C@H](NC(=O)c2nccc(OC)c2OCOC(=O)C(C)C)C(=O)O[C@@H](C)[C@@H]1CC(C)C [compound 65] | > 70 | > 70 | > 70 | > 70 |  |  |  | 
COc1ccnc(C(=O)N[C@H]2COC[C@H](CCCc3ccccc3)[C@@H](Cc3ccc(OC(F)(F)F)cc3)[C@H](C)OC2=O)c1OC(C)=O [compound 81] | < 70 | < 70 | < 70 | < 70 |  |  |  | 
COc1ccnc(C(=O)N[C@H]2COC[C@H](CC3CC3)[C@@H](c3ccccc3)[C@H](C)OC2=O)c1O [compound 154] |  |  |  |  | > 70 | > 70 | > 70 | > 70
CCOCC(=O)OCOc1c(OC)ccnc1C(=O)N[C@H]1COC[C@H](CC2CC2)[C@@H](c2ccccc2)[C@H](C)OC1=O [compound 103] | > 70 | > 70 | > 70 | > 70 |  |  |  | 
COc1ccnc(C(=O)N[C@H]2COC[C@H](Cc3ccc(C(F)(F)F)cc3)[C@@H](Cc3ccc(F)cc3)[C@H](C)OC2=O)c1OCOC(=O)C(C)C [compound 80] | < 70 | < 70 | > 70 | < 70 |  |  |  | 
COc1ccnc(C(=O)N[C@H]2COC[C@H](Cc3ccccc3)[C@@H](CCC(C)C)[C@H](C)OC2=O)c1OC(C)=O [compound 84] | > 70 | > 70 | > 70 | > 70 |  |  |  | 
COc1ccnc(C(=O)N[C@H]2COC[C@H](Cc3ccc(C(F)(F)F)cc3)[C@@H](Cc3ccc(F)cc3)[C@H](C)OC2=O)c1O [compound 147] |  |  |  |  | > 70 | < 70 | > 70 | < 70

Source: patent US9955691B2, “Macrocyclic picolinamides as fungicides” (DOW AGROSCIENCES LLC, priority 2014, dated 2018)
